Test results from patent US20250152574A1 (BIOGEN MA INC., priority 2022, published 2025).

Target: T1, EBP (Homo sapiens, UniProt Q15125)
T1 construct: HEK293T cells were utilized as the source of EBP enzyme; endogenous in cells; host or cells: HEK293T
Experiment: EBP Functional Assay (EBP immunoaffinity LC-MS assay)
Assay type: biochemical
Details: HEK293T cells as source of EBP enzyme; substrate zymosterol-d5, 37° C. for 4 h; percent conversion to dehydrolathosterol-d5 by LC-APCI MRM MS
Protocol: The EBP immunoaffinity (IA) LC-MS assay measures the potency of small molecule inhibitors of EBP by quantifying their concentration-dependent changes in the enzyme's substrate and product using liquid chromatography atmospheric pressure chemical ionization multiple reaction monitoring mass spectrometry (LC-APCI MRM MS). HEK293T cells were utilized as the source of EBP enzyme. The enzyme was incubated with the small molecule inhibitors at variable concentrations for 30 min. Deuterated form of EBP substrate, zymosterol-d5 (Avanti Polar Lipids, Cat #700068P-1 mg), was then added and the plate was incubated at 37° C. for 4 h. Finally, the sterol isomers were extracted and injected to LC-APCI MRM MS. MRM transition used for the quantification for both zymosterol and […] (substrate and product of EBP enzymatic reaction, respectively) is 372.3-203.2, CE 30 and DP 80 in positive ion mode. Percent conversion of the zymosterol-d5 to dehydrolathosterol-d5 was used to derive IC50 curves. Tasin-1 (1′-[(4-Methoxyphenyl)sulfonyl]-4-methyl-1,4′-bipiperidine, CAS 792927-06-1) was used as the reference small molecule inhibitor.
Percent conversion versus the compound concentration data were fit to the following 4-parameter logistic model to generate IC50 curves: […]

T1 sequence (Q15125 whole entry): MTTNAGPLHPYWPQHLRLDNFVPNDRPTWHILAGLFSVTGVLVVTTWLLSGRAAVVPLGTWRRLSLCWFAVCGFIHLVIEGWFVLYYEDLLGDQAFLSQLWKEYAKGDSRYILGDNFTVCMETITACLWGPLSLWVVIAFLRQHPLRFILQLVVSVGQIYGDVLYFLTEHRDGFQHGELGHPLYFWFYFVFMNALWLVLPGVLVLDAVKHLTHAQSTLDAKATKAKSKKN

| IC50 [nM] | Compound |
| --- | --- |
| 100 to 250 | Cc1ccc(S(=O)(=O)N2CCC3(CC2)CC(N2CC(O)C2)CO3)c(Cl)c1 (centres unmarked) [Example 52, 1-(8-((2-Chloro-4-methylphenyl)sulfonyl)-1-oxa-8-azaspiro[4.5]decan-3-yl)azetidin-3-ol] |
| 250 to 1500 | COC1CN(C2COC3(CCN(S(=O)(=O)c4cnc(C5CC5)s4)CC3)C2)C1 (centres unmarked) [Example 55, 8-((2-Cyclopropylthiazol-5-yl)sulfonyl)-3-(3-methoxyazetidin-1-yl)-1-oxa-8-azaspiro[4.5]decane] |
| 250 to 1500 | COC1CN(C2COC3(CCN(S(=O)(=O)c4cc(C5CC5)nn4C)CC3)C2)C1 (centres unmarked) [Example 58, 8-((3-Cyclopropyl-1-methyl-1H-pyrazol-5-yl)sulfonyl)-3-(3-methoxyazetidin-1-yl)-1-oxa-8-azaspiro[4.5]decane] |
| 250 to 1500 | COc1ncc(Cl)cc1S(=O)(=O)N1CCC2(CC1)CC(N1CC(OC)C1)CO2 (centres unmarked) [Example 61, 8-((5-Chloro-2-methoxypyridin-3-yl)sulfonyl)-3-(3-methoxyazetidin-1-yl)-1-oxa-8-azaspiro[4.5]decane] |
| 250 to 1500 | COc1ncc(Cl)cc1S(=O)(=O)N1CCC2(CC1)CC(N1CC3(COC3)C1)CO2 (centres unmarked) [Example 62, 8-((5-Chloro-2-methoxypyridin-3-yl)sulfonyl)-3-(2-oxa-6-azaspiro[3.3]heptan-6-yl)-1-oxa-8-azaspiro[4.5]decane] |

More lines, now with the values behind:

| Compound | IC50 [nM] |
| --- | --- |
| Cc1ccc(S(=O)(=O)N2CCC3(CC2)CC(N2CC(C)(O)C2)CO3)c(Cl)c1 (centres unmarked) [Example 50, 1-(8-((2-Chloro-4-methylphenyl)sulfonyl)-1-oxa-8-azaspiro[4.5]decan-3-yl)-3-methylazetidin-3-ol] | 100 to 250 |
| Cc1ccc(S(=O)(=O)N2CCC3(CC2)CC(NC2CCOCC2)CO3)c(Cl)c1 (centres unmarked) [Example 51, 8-((2-Chloro-4-methylphenyl)sulfonyl)-N-(tetrahydro-2H-pyran-4-yl)-1-oxa-8-azaspiro[4.5]decan-3-amine] | < 100 |
| Cc1cc(OC(F)(F)F)ccc1S(=O)(=O)N1CCC2(CC1)CC(N1CCOCC1)CO2 (centres unmarked) [Example 54, 8-((2-Methyl-4-(trifluoromethoxy)phenyl)sulfonyl)-3-morpholino-1-oxa-8-azaspiro[4.5]decane] | 250 to 1500 |
| Cn1nc(C2CC2)cc1S(=O)(=O)N1CCC2(CC1)CC(N1CC3(COC3)C1)CO2 (centres unmarked) [Example 56, 8-((3-Cyclopropyl-1-methyl-1H-pyrazol-5-yl)sulfonyl)-3-(2-oxa-6-azaspiro[3.3]heptan-6-yl)-1-oxa-8-azaspiro[4.5]decane] | 100 to 250 |
| COCCNC1COC2(CCN(S(=O)(=O)c3cc(C4CC4)nn3C)CC2)C1 (centres unmarked) [Example 59, 8-((3-Cyclopropyl-1-methyl-1H-pyrazol-5-yl)sulfonyl)-N-(2-methoxyethyl)-1-oxa-8-azaspiro[4.5]decan-3-amine] | 250 to 1500 |
| COCCN(C)C1COC2(CCN(S(=O)(=O)c3cc(C4CC4)nn3C)CC2)C1 (centres unmarked) [Example 60, 8-((3-Cyclopropyl-1-methyl-1H-pyrazol-5-yl)sulfonyl)-N-(2-methoxyethyl)-N-methyl-1-oxa-8-azaspiro[4.5]decan-3-amine] | 250 to 1500 |
| N#Cc1ccc(Cl)c(S(=O)(=O)N2CCC3(CC2)CC(N2CC4(COC4)C2)CO3)c1 (centres unmarked) [Example 64, 3-((3-(2-Oxa-6-azaspiro[3.3]heptan-6-yl)-1-oxa-8-azaspiro[4.5]decan-8-yl)sulfonyl)-4-chlorobenzonitrile] | 250 to 1500 |
| COCCNC1COC2(CCN(S(=O)(=O)c3cc(C)cnc3OC)CC2)C1 (centres unmarked) [Example 65, 8-((2-Methoxy-5-methylpyridin-3-yl)sulfonyl)-N-(2-methoxyethyl)-1-oxa-8-azaspiro[4.5]decan-3-amine] | 100 to 250 |
| [2H]C([2H])([2H])N(CCOC)C1COC2(CCN(S(=O)(=O)c3cc(C)cnc3OC)CC2)C1 (centres unmarked) [Example 66, 8-((2-Methoxy-5-methylpyridin-3-yl)sulfonyl)-N-(2-methoxyethyl)-N-(methyl-d3)-1-oxa-8-azaspiro[4.5]decan-3-amine] | 250 to 1500 |
